Data: publication PMC10743905, “Design, Synthesis, and In Vitro and In Vivo Bioactivity Studies of Hydrazide–Hydrazones of 2,4-Dihydroxybenzoic Acid” (International Journal of Molecular Sciences, 2023)
Values after ≈ are worked out from the molar mass of the structure shown.

Assays:
[1] = system: Staphylococcus aureus ATCC 43300; assay: Broth microdilution MIC/MBC; format: cell-based; conditions: Staphylococcus aureus ATCC 43300 (MRSA)
Outline: (§1)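 Strains were subcultured on nutrient or Sabouraud agar, suspended to 0.5 McFarland in saline, then added to wells holding two-fold compound dilutions. Final concentrations ranged 1000 to 0.488 µg/ml in Mueller-Hinton broth or RPMI 1640 with MOPS.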

[2] = system: Micrococcus luteus ATCC 10240; assay: Broth microdilution MIC/MBC; format: cell-based
Outline: as §1

[3] = system: Staphylococcus aureus ATCC 29213; assay: Broth microdilution MIC/MBC; format: cell-based
Outline: as §1

[4] = system: Pseudomonas aeruginosa ATCC 9027; assay: Broth microdilution MIC/MBC; format: cell-based; conditions: ATCC9027
Outline: as §1

[5] = system: Proteus mirabilis ATCC 12453; assay: Broth microdilution MIC/MBC; format: cell-based
Outline: as §1

[6] = system: Salmonella typhimurium ATCC 14028; assay: Broth microdilution MIC/MBC; format: cell-based
Outline: as §1

[7] = system: Staphylococcus epidermidis ATCC 12228; assay: Broth microdilution MIC/MBC; format: cell-based
Outline: as §1

Gram-negative bacteria = assay: Broth microdilution, summary over the Gram-negative panel; format: cell-based
From the text: (§2) In vitro antimicrobial activity assays - Methodology
(§3) The examined compounds 1 - 24 were screened in vitro for antibacterial and antifungal activities using the broth microdilution method according to procedure reported earlier by our research group and European Committee on Antimicrobial Susceptibility Testing (EUCAST) and Clinical and Laboratory Standards Institute (CLSI) guidelines against a panel of reference and clinical or saprophytic strains of microorganisms, in-cluding Gram-positive bacteria, Staphylococcus aureus ATCC 43300 (Methicillin Resistant S. aureus – MRSA), Staphylococcus aureus ATCC 29213 (Methicillin Susceptible S. aureus – MSSA), Staphylococcus epidermidis ATCC 12228, Enterococcus faecalis ATCC 29212, Micro-coccus luteus ATCC 10240, Bacillus subtilis ATCC 6633 and Bacillus cereus ATCC 10876), Gram-negative bacteria (Bordetella bronchiseptica ATCC 4617, Escherichia coli ATCC 25922, Klebsiella pneumoniae ATCC 13883, Proteus mirabilis ATCC 12453, Salmonella typhimurium ATCC 14028 and Pseudomonas aeruginosa ATCC 9027) and fungi belonging to yeasts (Can-dida albicans ATCC 10231, Candida albicans ATCC 2091, Candida parapsilosis ATCC 22019, Candida glabrata ATCC 90030 and Candida krusei ATCC 14243). The microorganisms be-longing to ATCC came from American Type Culture Collection, routinely used for the evaluation of antimicrobials. All the used microbial cultures were first subcultured on nu-trient agar or Sabouraud agar at 35°C for 18-24 h or 30°C for 24-48 h for bacteria and fungi, […]
The surface of Mueller-Hinton agar (for bacteria) and RPMI 1640 with MOPS (for fungi) were inoculated with the suspensions of bacterial or fungal species. Microbial suspensions were prepared in sterile saline with an optical density of McFarland standard scale 0.5.
Samples containing examined compounds were dissolved in dimethyl sulfoxide (DMSO).
Furthermore, bacterial and fungal suspensions were put onto Petri dishes with solid me-dia containing 2 mg/mL of the tested compounds followed incubation at 37°C for 24h and 30°C for 48h for bacteria and fungi, respectively. The inhibition of microbial growth was judged by comparison with a control culture prepared without any sample tested. Ciprof-loxacin, vancomycin, nitrofurantoin, cefuroxime, ampicillin or nystatin (Sigma) were used as a reference antibacterial or antifungal compounds, respectively.
(§4) Subsequently, the MIC (Minimal Inhibitory Concentration) of the compounds was ex-amined by the microdilution broth method, using their two-fold dilutions in Mueller- […]
(§5) Hinton broth or (for bacteria) and RPMI 1640 broth with MOPS (for fungi) prepared in 96-well polystyrene plates. Final concentrations of the compounds ranged from 1000 to 0.488 µg/ml. Microbial suspensions were prepared in 0.85% NaCl with an optical density of 0.5 McFarland standard. Next each bacterial or fungal suspension was added per each well containing broth and various concentrations of the examined compounds. After incuba-

[8] = system: Bacillus subtilis ATCC 6633; assay: Broth microdilution MIC/MBC; format: cell-based
Outline: as §1

[9] = system: Enterococcus faecalis ATCC 29212; assay: Broth microdilution MIC/MBC; format: cell-based
Outline: as §1

[10] = system: Klebsiella pneumoniae ATCC 13883; assay: Broth microdilution MIC/MBC; format: cell-based
Outline: as §1

[11] = system: Bacillus cereus ATCC 10876; assay: Broth microdilution MIC/MBC; format: cell-based
Outline: as §1

[12] = system: Bordetella bronchiseptica ATCC 4617; assay: Broth microdilution MIC/MBC; format: cell-based
Outline: as §1

[13] = system: Escherichia coli ATCC 25922; assay: Broth microdilution MIC/MBC; format: cell-based
Outline: as §1

[14] = system: reference Gram-positive bacteria; assay: Broth microdilution, summary over the Gram-positive panel; format: cell-based; conditions: read-out: MIC
From the text: as §2
as §3, with “antimicrobials.” for “antimicrobials. All the used microbial cultures were first subcultured on nu-trient agar or Sabouraud agar at 35°C for 18-24 h or 30°C for 24-48 h for bacteria and fungi,”
Samples containing examined compounds were dissolved in dimethyl sulfoxide (DMSO). […]
as §4, §5

[15] = system: Candida glabrata ATCC 90030; assay: Broth microdilution MIC/MFC; format: cell-based; conditions: Nakaseomyces glabratus, ATCC90030, read-out: MIC
Outline: as §1

[16] = system: Candida albicans ATCC 2091; assay: Broth microdilution MIC/MFC; format: cell-based
Outline: as §1

[17] = system: Candida albicans ATCC 10231; assay: Broth microdilution MIC/MFC; format: cell-based
Outline: as §1

[18] = system: Candida parapsilosis ATCC 22019; assay: Broth microdilution MIC/MFC; format: cell-based; conditions: Lodderomyces parapsilosis, ATCC22019, read-out: MIC
Outline: as §1

[19] = system: Candida krusei ATCC 14243; assay: Broth microdilution MIC/MFC; format: cell-based; conditions: Pichia kudriavzevii, ATCC14243, read-out: MIC
Outline: as §1

MDA-MB-231 cell line = system: MDA-MB-231 cell line; design: method as in PMID 34578985; conditions: MDA-MB-231 breast cancer cell line; cited from earlier work
Pasteurella multocida = system: Pasteurella multocida; design: method as in PMID 23510516; conditions: cited from earlier work
Neisseria gonorrhoeae = system: Neisseria gonorrhoeae; design: method as in PMID 23510516; conditions: cited from earlier work
Escherichia coli = system: Escherichia coli; design: method as in PMID 23510516; conditions: cited from earlier work
[20] = system: Staphylococcus aureus MRSA strain; design: method as in PMID 23510516; conditions: cited from earlier work
MCF-7 cell line = system: MCF-7 cell line; design: method as in PMID 34578985; conditions: MCF-7 breast cancer cell line; cited from earlier work
Enterococcus faecalis = system: Enterococcus faecalis; design: method as in PMID 23510516; conditions: cited from earlier work
HepG2 cells = system: HepG2 cells; design: method as in doi:10.1016/j.cclet.2016.10.020; conditions: standard; cited from earlier work

## O=C(N/N=C/c1cc(Br)c(O)c(Br)c1)c1ccc(O)cc1O [Compound 17, N-[(3,5-dibromo-4-hydroxyphenyl)methylidene]-2,4-dihydroxybenzohydrazide]
[1]
  MBC: > 1000 µg/mL
  MBC/MIC: > 16
  MIC: 62.5 µg/mL (≈ 145 µM)
[2]
  MBC/MIC: > 8
[2]; ATCC10240
  MBC: > 1000 µg/mL
[2]; ATCC10240, read-out: MIC
  MIC: 125 µg/mL (≈ 291 µM)
[3]
  MBC/MIC: 32
[3]; ATCC29213
  MBC: > 1000 µg/mL
  MIC: 31.2 µg/mL (≈ 72.7 µM)
[4]
  MIC: > 1000 µg/mL
[5]
  MBC/MIC: > 1
[5]; ATCC12453
  MBC: > 1000 µg/mL
  MIC: 1000 µg/mL (≈ 2330 µM)
[6]
  MBC/MIC: > 1
[6]; Salmonella enterica
  MBC: > 1000 µg/mL
  MIC: 1000 µg/mL (≈ 2330 µM)
[7]
  MBC/MIC: > 8
[7]; ATCC12228
  MBC: > 1000 µg/mL
[7]; ATCC12228, read-out: MIC
  MIC: 250 µg/mL (≈ 581 µM)
Gram-negative bacteria
  MBC: > 1000 µg/mL
  MIC: 500 to 1000 µg/mL (≈ 1160 to 2330 µM)
other
  melting point: 260 °C
[8]
  MBC/MIC: > 8
[8]; ATCC6633
  MBC: > 1000 µg/mL
[8]; ATCC6633, read-out: MIC
  MIC: 125 µg/mL (≈ 291 µM)
[9]
  MBC/MIC: > 1
[9]; ATCC29212, read-out: MBC
  MBC: > 1000 µg/mL
[9]; ATCC29212, read-out: MIC
  MIC: 500 µg/mL (≈ 1160 µM)
[10]
  MBC/MIC: > 1
[10]; ATCC13883
  MBC: > 1000 µg/mL
  MIC: 1000 µg/mL (≈ 2330 µM)
[11]
  MBC/MIC: > 4
[11]; ATCC10876
  MBC: > 1000 µg/mL
[11]; ATCC10876, read-out: MIC
  MIC: 250 µg/mL (≈ 581 µM)
[12]
  MBC/MIC: > 1
[12]; ATCC4617
  MBC: > 1000 µg/mL
  MIC: 1000 µg/mL (≈ 2330 µM)
[13]
  MBC/MIC: > 1
[13]; ATCC25922
  MBC: > 1000 µg/mL
  MIC: 1000 µg/mL (≈ 2330 µM)
[14]
  MIC: 15.6 to 1000 µg/mL (≈ 36.3 to 2330 µM)
[15]
  MIC: > 1000 µg/mL
[16]
  MFC/MIC: > 1
[16]; ATCC2091, read-out: MFC
  MFC: > 1000 µg/mL
[16]; ATCC2091, read-out: MIC
  MIC: 1000 µg/mL (≈ 2330 µM)
[17]
  MFC/MIC: > 1
[17]; ATCC10231, read-out: MFC
  MFC: > 1000 µg/mL
[17]; ATCC10231, read-out: MIC
  MIC: 1000 µg/mL (≈ 2330 µM)
[18]
  MIC: > 1000 µg/mL
[19]
  MIC: > 1000 µg/mL

## O=C(O)c1ccc(O)cc1O [2,4-dihydroxybenzoic acid]
MDA-MB-231 cell line
  IC50: 4770 µM
Pasteurella multocida
  MIC: 1000 µg/mL (≈ 6490 µM)
Neisseria gonorrhoeae
  MIC: 1000 µg/mL (≈ 6490 µM)
Escherichia coli
  MIC: 1000 µg/mL (≈ 6490 µM)
[20]
  MIC: 500 µg/mL (≈ 3240 µM)
MCF-7 cell line
  cytotoxicity: nontoxic
Enterococcus faecalis
  MIC: 1000 µg/mL (≈ 6490 µM)

## COc1cccc2c1C(=O)c1c(O)c3c(c(O)c1C2=O)C[C@@](O)(C(=O)CO)C[C@@H]3O[C@H]1C[C@H](N)[C@H](O)[C@H](C)O1 [doxorubicin]
HepG2 cells
  IC50: 6 µM
